Measurements reported in US20220323376A1, “METHODS AND COMPOSITIONS FOR SENSITIZING CANCER CELLS TO DRUG-INDUCED APOPTOSIS” (New York University, priority 2019, published 2022).

Columns and labels:
[1] = test system: AML cells; assay: Cell death by Annexin V flow cytometry; type: cell-based, human
Procedure: Cell Cycle and Apoptosis. To assess cell cycle, we performed the 5-ethynyl-2′-deoxyuridine (EdU) incorporation assay using the Click-iT Plus EdU Alexa Fluor 647 kit as described in manufacturer's protocol (Life Technologies). Apoptosis analysis was determined using APC Annexin V (BD Bioscience) and 4′,6-Diamidino-2-Phenylindole, Dihydrochloride (DAPI) for DNA content. Both EdU and Annexin V stained cells were analyzed by flow cytometry and FlowJo software.

[2] = test system: mouse AML cell line RN2 (MLL-AF9; Kras)
Procedure: ZIP model was used to calculate the delta-score of synergisms of the combination treatments. […] ZIP model was used to calculate the delta-score of synergisms of the combination treatments. […] ZIP model was used to calculate the delta-score of synergisms of the combination treatments.
Drug Treatment and IC50 Measurements. Cells were plated in 96-well plates and exposed to Venetoclax at concentrations ranging from 0.4 nM to 300 nM (for MOLM-13 and MV4-11), 150 nM to 10 μM (for Venetoclax-resistant cell lines and THP-1) with a minimum of three technical replicates per concentration per cell line. Cell viability was measured with the CellTiter-Glo reagent (Promega) according to manufacturer's instructions. Absolute viability values were converted to percentage viability versus DMSO control treatment, and then non-linear fit of log(inhibitor) versus response (three parameters) was performed in GraphPad Prism v7.0 to obtain the IC50 values. For Venetoclax and Azacitidine combined treatment, two drugs were mixed at the fixed ratio (Ven:Aza=1:4) before diluting to certain concentrations.

[3] = test system: human AML cell lines (MOLM-13, MV4-11, THP-1, KASUMI-1); assay: Venetoclax/drug IC50 by CellTiter-Glo in sgRNA-transduced AML cell lines; type: cell-based; conditions: for Synergistic effect of CLPB ablation with the drug: MOLM-13 and MV4-11 with sgCLPB or sgRosa, 48 hrs
Source text: (§1) Drug Treatment and IC50 Measurements.

[4] = test system: AML cells (THP-1, MOLM-13); assay: Western blotting of AML cell lysates after drug treatment; type: cell-based, human; conditions: for CLPB protein levels in cells surviving drug treatment: MOLM-13, Venetoclax (IC50) 10 days, Idarubicin 10 nM 2 days
Procedure: Biochemistry. Protein lysis was performed with RIPA buffer (Thermo Fisher Scientific) in presence of proteases inhibitor cocktail (PIC, Sigma) for 30 min at 4° C. After centrifugation at maximal speed for 20 min, supernatants were collected and protein concentration was determined using Bradford reagent (Bio-Rad).
Protein lysates (25-30 μg) were loaded onto 4%-12% Bis-Tris or 3%-8% Tris-acetate polyacrylamide gels (Thermo Fisher Scientific), transferred onto PVDF membranes (Millipore) and probed using the following antibodies: anti-CLPB polyclonal (1:2000, Proteintech, Cat #15743-1-AP), anti-TFAM (1:500, Santa Cruz, Cat #sc-376672), anti-OPA1 monoclonal (1:1000, BD Biosciences, Cat #612606), anti-SDHA monoclonal (1:2500, Abcam, Cat #ab14715), anti-HAX1 polyclonal (1:1000, Proteintech, Cat #11266-1-AP), anti-cytochrome c monoclonal (1:4000, Thermo Fisher Scientific, Cat #BDB556433), anti-caspase-3 monoclonal (1:1000, Proteintech, Cat #66470-2-Ig), anti-cleaved caspase-3 polyclonal (1:1000, Cell Signaling, Cat #9661S), anti-GRP75 monoclonal (1:1000, Santa Cruz, Cat #sc-133137), anti-TOM20 monoclonal (1:500, Santa Cruz, Cat #sc-17764), anti-p53 monoclonal (1:1000, Active Motif North America, Cat #39553), anti-BCL-2 polyclonal (1:200, R&D Systems, Cat #AF810-SP), anti-MCL1 polyclonal (1:1000, Proteintech, Cat #16225-1-AP), anti-BCL-XL monoclonal (1:500, R&D Systems, Cat #MAB894SP), anti-NOXA monoclonal (1:500, Abcam, Cat #ab13654), anti-GAPDH polyclonal (1:10000, Proteintech, Cat #10494-1-AP), anti-LAMIN A polyclonal (1:1000, Santa Cruz, Cat #sc-6214) and anti-ACTIN (1:10000, Millipore, Cat #MAB1501) antibodies. Isotype matched secondary antibodies were conjugated to horseradish peroxidase (GE Healthcare) and chemiluminescence was detected with ECL (Life Technologies) using films. Band densitometric analysis was performed using ImageJ (National Institutes of Health).

[5] = test system: human AML cell lines (MOLM-13, KASUMI-1); assay: IC50 curves of AMG176 in combination with Mdivi-1; type: cell-based; conditions: AML cells
[6] = test system: AML cells (THP-1 and MOLM-13); assay: Electron microscopy-based morphometric analysis of mitochondria; type: cell-based, human; conditions: THP-1 4 μM, MOLM-13 17 nM, 16 hrs
Procedure: Transmission Electron Microscopy. Cultured cells were fixed in 0.1M sodium cacodylate buffer (pH 7.4) containing 2.5% glutaraldehyde and 2% paraformaldehyde for 2 hrs and post-fixed with 1% osmium tetroxide and 1% potassium ferrocyanide for one hour at 4° C. Then block was stained in 0.25% aqueous uranyl acetate, processed in a standard manner and embedded in EMbed 812 (Electron Microscopy Sciences, Hatfield, Pa.). Ultrathin sections (60 nm) were cut, mounted on copper grids and stained with uranyl acetate and lead citrate. Stained grids were examined under Philips CM-12 electron microscope and photographed with a Gatan (4k×2.7k) digital camera. For morphometric analysis, maximal cristae width was measured using Image J (NIH) as shown in FIG. 4A in at least 50 randomly selected mitochondria from a minimum of 15 cells/experiment.

[7] = test system: AML cells (THP-1, MOLM-13, MV4-11); assay: Mitochondrial membrane potential by TMRM staining; type: cell-based, human; conditions: 16 hrs
Procedure: Mitochondrial Membrane Potential. Mitochondrial membrane potential was monitored cytofluorimetrically using tetramethylrhodamine methyl ester (TMRM). Cells were loaded with 10 nM TMRM in presence of 2 μM Cyclosporin H in Hank's Balanced Salt Solution (HBSS) supplemented with 10 mM HEPES, 30 min at 37° C. When indicated, the experiments were performed in cells pre-treated with Venetoclax for 16 hours at the indicated concentrations.

[8] = test system: Venetoclax-resistant (VR) MOLM-13 and MV4-11 cells; assay: Venetoclax IC50 in parental versus Venetoclax-resistant (VR) AML cell lines; type: cell-based, human
Procedure: For the generation of the Venetoclax-resistant cell lines, MOLM-13 and MV4-11 were cultured in media containing increasing doses of Venetoclax (from 5 nM to 1000 nM) for more than 8 weeks to achieve complete resistance to the drug.
as §1

[9] = test system: AML patients; conditions: cited from earlier work
[10] = test system: MOLM-13-Par or MOLM-13-VR xenografts; assay: MOLM-13 parental and VR xenografts in NSG mice, Venetoclax by oral gavage; type: in vivo, NOD SCID gamma (NSG) mice
Procedure: Animal experiments. For in vivo experiments, Cas9 and luciferase-expressing parental and Venetoclax-resistant MOLM-13 cells were transduced with sgRosa or sgCLPB #1 constructs. At day 2 post-transduction, sgRNA positive cells (GFP) were sorted by FACS. 0.5 million sgRNA-expressing leukemia cells were intravenously injected into recipient NSG mice. For experiments that required drug administration, recipient mice were treated with vehicle or Venetoclax (100 mg/kg, Selleckchem) daily by oral gavage from day 6 to day 20. Venetoclax was prepared in 10% ethanol, 30% polyethyleneglycol-400 (Sigma), and 60% phosal 50 propylene glycol (Lipoid). Whole-body bioluminescent imaging was performed at indicated time points by intraperitoneally injection of Luciferin (Goldbio) at a 50 mg/kg concentration and imaging was performed after 5 mins using an IVIS imager. Bioluminescent signals (radiance) were quantified using Living Image software with standard regions of interests (ROI) rectangles. Peripheral blood of recipient NSG mice was collected at indicated time points after transplantation, and sgRNA positive cells (GFP+) were analyzed by flow cytometry. All animal experiments were performed in accordance with protocols approved by the New York University Institutional Animal Care and Use Committee (IACUC, ID: IA16-00008_TR1).
Animals. […]

Q: Which “Apoptosis induced by AMG176 upon CLPB depletion” value ([1]; MOLM-13 and KASUMI-1 with sgCLPB, 22 hrs) does the source give for `CO[C@H]1/C=C/C[C@H](C)[C@@H](C)S(=O)(=O)NC(=O)c2ccc3c(c2)N(C[C@@H]2CC[C@H]21)C[C@@]1(CCCc2cc(Cl)ccc21)CO3` [AMG176, (3′R,4S,6′R,7′S,8′E,11′S,12′R)-7-chloro-7′-methoxy-11′,12′-dimethyl-13′,13′-dioxospiro[2,3-dihydro-1H-naphthalene-4,22′-20-oxa-13λ6-thia-1,14-diazatetracyclo[14.7.2.03,6.019,24]pentacosa-8,16(25),17,19(24)-tetraene]-15′-one] here?
A: The value was “enhances the apoptosis”.

Q: For `CCN(CC)CCCC(C)Nc1ccnc2cc(Cl)ccc12` (stereo not drawn) [Chloroquine, N′-(7-chloroquinolin-4-yl)-N,N-diethylpentane-1,4-diamine], which “IC50 of chloroquine upon addition of Venetoclax plus Azacitidine” value [2] is on record?
A: Its value is “vice versa”.

Q: With `Nc1ccn([C@@H]2O[C@H](CO)[C@@H](O)[C@@H]2O)c(=O)n1` [Cytarabine, 4-amino-1-[(2R,3S,4S,5R)-3,4-dihydroxy-5-(hydroxymethyl)oxolan-2-yl]pyrimidin-2-one] as the compound, how does the “Synergistic effect of CLPB ablation with the drug” value (shortened to “Synergistic effect”) [3] read?
A: The value was “no synergistic effect”.

Q: Which “Synergistic effect” value [3] does the source give for `CC(=O)[C@]1(O)Cc2c(O)c3c(c(O)c2[C@@H](O[C@H]2C[C@H](N)[C@H](O)[C@H](C)O2)C1)C(=O)c1ccccc1C3=O` [Idarubicin, (7S,9S)-9-acetyl-7-{[(2R,4S,5S,6S)-4-amino-5-hydroxy-6-methyloxan-2-yl]oxy}-6,9,11-trihydroxy-5,7,8,9,10,12-hexahydrotetracene-5,12-dione] here?
A: The value was “no synergistic effect”.

Q: And the “CLPB protein levels in cells surviving drug treatment” value [4]?
A: The value was “did not lead to increase of CLPB protein levels”.

Q: With `Cc1sc2c(c1C)C(c1ccc(Cl)cc1)=N[C@@H](CC(=O)OC(C)(C)C)c1nnc(C)n1-2` [JQ-1] as the compound, how does the “Synergistic effect” value [3] read?
A: Its value is “no synergistic effect”.

Q: Which “Combination effect with AMG176” value [5] does the source give for `COc1cc(-n2c(=S)[nH]c3ccccc3c2=O)c(Cl)cc1Cl` [Mdivi-1, 3-(2,4-dichloro-5-methoxyphenyl)-2-sulfanylidene-1H-quinazolin-4-one] here?
A: Its value is “synergistic effects with AMG176”.

Q: Which “Mitochondrial ultrastructure after treatment” value [6] does the source give for `CC1(C)CCC(CN2CCN(c3ccc(C(=O)NS(=O)(=O)c4ccc(NCC5CCOCC5)c([N+](=O)[O-])c4)c(Oc4cnc5[nH]ccc5c4)c3)CC2)=C(c2ccc(Cl)cc2)C1` [Venetoclax, 4-[4-[[2-(4-chlorophenyl)-4,4-dimethylcyclohexen-1-yl]methyl]piperazin-1-yl]-N-[3-nitro-4-(oxan-4-ylmethylamino)phenyl]sulfonyl-2-(1H-pyrrolo[2,3-b]pyridin-5-yloxy)benzamide] here?
A: The value was “abnormal ultrastructure after Venetoclax treatment, characterized by a lower number of cristae and increase of the cristae lumen width”.

Q: What about the “Mitochondrial depolarization in CLPB-knockout cells (TMRM)” value ([7]; AML cells lacking CLPB versus control) of the same compound?
A: The value was “more prone to Venetoclax-induced mitochondrial depolarization”.

Q: And the “Mitochondrial membrane potential (TMRM)” value ([7]; THP-1 4 μM, MOLM-13 35 nM)?
A: Its value is “depolarization of mitochondria”.

Q: And the “Venetoclax IC50 upon CLPB depletion” value ([3]; CLPB sgRNAs versus sgRosa, all the cell lines tested, 48 hours)?
A: The value was “significantly reduced the IC50”.

Q: And the “Venetoclax half maximal inhibitory concentration (IC50) upon deletion of BAX and PMAIP1” value ([3]; KASUMI-1 and MOLM-13 cells, 48 hours, Cell-TiterGlo)?
A: Its value is “significant increase”.

Q: And the “Sensitivity of p53-deficient MOLM-13 to Venetoclax upon CLPB depletion” value ([3]; p53-KO clones B10 and B11, sgCLPB #1, 48 hours)?
A: The value was “fully re-sensitize p53-deficient MOLM-13 to Venetoclax treatment”.

Q: What about the “Venetoclax IC50 with TP53 sgRNAs” value ([3]; p53 wild-type MOLM-13 and p53-mutant KASUMI-1, 48 hours) of the same compound?
A: Its value is “increased the Venetoclax IC50 in p53 wild-type MOLM-13 but not p53-mutant KASUMI-1”.

Q: And the “Increase of Venetoclax concentration required for the 50% cell death in VR cell lines in respect to the original clones (Par.)” value ([8]; MOLM-13 and MV4-11 VR versus parental)?
A: The value was “more than 100 fold”.

Q: And the “Sensitivity of VR cells to Venetoclax upon ablation of CLPB” value ([8]; VR MOLM-13 and MV4-11 with CLPB sgRNAs)?
A: The value was “significantly re-sensitized VR cells”.

Q: What about the “Cell death by Annexin-V staining” value ([1]; AML cells, 16 hrs) of the same compound?
A: The value was “cell death”.

Q: What about the “Cell death induced by Venetoclax upon depletion of OPA1” value ([1]; THP-1, 4 μM, 16 hrs) of the same compound?
A: The value was “enhances cell death”.

Q: And the “Annexin-V cell death in cells transduced with sgRNAs targeting CLPB versus negative controls” value ([1]; puromycin-selected AML cells, 16 hrs)?
A: Its value is “hypersensitivity of these cells to Venetoclax”.

Q: What about the “Caspase-3 activation in AML cells lacking CLPB relative to wild-type” value ([4]; MOLM-13 35 nM, THP-1 4 μM, 16 hrs) of the same compound?
A: Its value is “prevalent caspase-3 activation”.

Q: What about the “CLPB protein levels in cells surviving drug treatment” value [4] of the same compound?
A: Its value is “significant increase in the CLPB protein”.

Q: What about the Caspase-3 cleavage ([4]; THP-1, 4 μM, 16 hrs) of the same compound?
A: Its Caspase-3 cleavage is “caspase activation”.

Q: What about the “OPA1 long and short forms (western blot)” value ([4]; THP-1, 4 μM, 16 hrs) of the same compound?
A: Its value is “decrease in the long (L-OPA1) forms and accumulation of short (S-OPA1) forms of OPA1”.

Q: What about the “Patients that do not respond upfront” value ([9]; Venetoclax with hypomethylating agents or low dose cytarabine) of the same compound?
A: Its value is “approximately 30%”.

Q: What about the “Response rates, single-agent Venetoclax in AML” value ([9]; monotherapy) of the same compound?
A: Its value is “modest and rather short-lived”.

Q: What about the “Synergy of CLPB deletion with Venetoclax in vivo (bioluminescence, circulating GFP+ leukemic cells)” value ([10]; 100 mg/kg daily oral gavage day 6 to day 20) of the same compound?
A: The value was “synergizes efficiently with Venetoclax in both Venetoclax-sensitive and resistant xenografts”.

Q: And the “CLPB and OPA1 protein levels in wild-type tumors at late stages versus vehicle-treated mice” value ([10]; sorted GFP+ sgRosa leukemia cells from bone marrow)?
A: Its value is “significantly elevated CLPB and OPA1 protein levels”.
